Columns and labels:
[1] = test system: Botryotinia fuckeliana (Botrytis cinerea); experiment: Botryotinia fuckeliana (Botrytis cinerea) / liquid culture (gray mould); format: cell-based; settings: 72 h, read-out: control of Botryotinia fuckeliana
Fusarium culmorum [2] = experiment: microbe, parasite or virus in culture; format: cell-based; settings: read-out: control of Fusarium culmorum
Fusarium culmorum [3] = experiment: whole plant or invertebrate; format: in vivo; settings: in Triticum aestivum, read-out: control of Fusarium culmorum
[4] = test system: Glomerella lagenarium (Colletotrichum lagenarium); experiment: Glomerella lagenarium (Colletotrichum lagenarium) / liquid culture (anthracnose); format: cell-based; settings: Colletotrichum orbiculare; read-out: control of Glomerella lagenarium
[5] = test system: Magnaporthe grisea (Pyricularia oryzae); experiment: microbe, parasite or virus in culture; format: cell-based; settings: 72 h, read-out: control of Magnaporthe grisea
Sclerotinia sclerotiorum = Sclerotinia sclerotiorum / liquid culture (cottony rot); settings: 72 h, read-out: control of Sclerotinia sclerotiorum
Procedure: Sclerotinia sclerotiorum/Liquid Culture (Cottony Rot)
Mycelia fragments of a newly grown liquid culture of the fungus are directly mixed into nutrient broth (Vogels broth). After placing a (DMSO) solution of test compound into a microtiter plate (96-well format) the nutrient broth containing the fungal material is added. The test plates are incubated at 24° C. and the inhibition of growth is determined photometrically 3-4 days after application.

Gaeumannomyces graminis = Gaeumannomyces graminis / liquid culture (take-all of cereals); format: cell-based; settings: read-out: control of Gaeumannomyces graminis
[6] = test system: Monographella nivalis (Microdochium nivale); experiment: Monographella nivalis (Microdochium nivale) / liquid culture (foot rot cereals); format: cell-based; settings: 96 h, read-out: control of Monographella nivalis

Row | SMILES | inhibition of growth at 200 ppm [1] [%] | inhibition of growth at 200 ppm (Fusarium culmorum [2]) [%] | pest or weed control at 200 ppm (Fusarium culmorum [3]) [%] | inhibition of growth at 200 ppm [4] [%] | inhibition of growth at 200 ppm [5] [%] | melting point [°C] | inhibition of growth at 20 ppm (Sclerotinia sclerotiorum) [%] | inhibition of growth at 200 ppm (Gaeumannomyces graminis) [%] | inhibition of growth at 200 ppm [6] [%]
1 | Cc1c(C(=O)NC(C)(Cc2ccccc2)CC(C)C)cnc2c(F)cccc12 (centres unmarked) [Compound E-15, N-(1-benzyl-1,3-dimethyl-butyl)-8-fluoro-4-methyl-quinoline-3-carboxamide] | ≥ 80 | ≥ 80 | ≥ 80 | ≥ 80 | ≥ 80 | 92 to 94 | ≥ 80 |  | 
2 | O=C(NC(CCC(F)(F)F)Cc1ccccc1)c1cnc2c(Cl)cccc2c1 (centres unmarked) [Compound E-17, N-(1-benzyl-4,4,4-trifluoro-butyl)-8-chloro-quinoline-3-carboxamide] | ≥ 80 | ≥ 80 | ≥ 80 |  | ≥ 80 | 163 to 167 |  | ≥ 80 | 
3 | Cc1cccc2cc(C(=O)NC(CCC(F)(F)F)Cc3ccccc3)cnc12 (centres unmarked) [Compound E-19, N-(1-benzyl-4,4,4-trifluoro-butyl)-8-methyl-quinoline-3-carboxamide] | ≥ 80 | ≥ 80 | ≥ 80 |  | ≥ 80 | 158 to 161 |  | ≥ 80 | 
4 | CC(C)CC(C)(Cc1ccccc1F)NC(=O)c1cnc2c(F)cccc2c1 (centres unmarked) [Compound E-21, 8-fluoro-N-[1-[(2-fluorophenyl)methyl]-1,3-dimethyl-butyl]quinoline-3-carboxamide] | ≥ 80 | ≥ 80 | ≥ 80 | ≥ 80 | ≥ 80 | 105 to 106 |  | ≥ 80 | ≥ 80
5 | CC(C)CC(C)(Cc1ccccc1Cl)NC(=O)c1cnc2c(F)cccc2c1 (centres unmarked) [Compound E-22, N-[1-[(2-chlorophenyl)methyl]-1,3-dimethyl-butyl]-8-fluoro-quinoline-3-carboxamide] | ≥ 80 | ≥ 80 | ≥ 80 | ≥ 80 | ≥ 80 | 109 to 110 |  | ≥ 80 | ≥ 80
6 | Cc1ccccc1CC(C)(CC(C)C)NC(=O)c1cnc2c(F)cccc2c1 (centres unmarked) [Compound E-23, N-[1,3-dimethyl-1-(o-tolylmethyl)butyl]-8-fluoro-quinoline-3-carboxamide] | ≥ 80 | ≥ 80 | ≥ 80 | ≥ 80 | ≥ 80 | 125 to 126 |  | ≥ 80 | ≥ 80
7 | CC(C)CC(C)(Cc1cccc(Cl)c1)NC(=O)c1cnc2c(F)cccc2c1 (centres unmarked) [Compound E-27, N-[1-[(3-chlorophenyl)methyl]-1,3-dimethyl-butyl]-8-fluoro-quinoline-3-carboxamide] | ≥ 80 | ≥ 80 |  | ≥ 80 | ≥ 80 | 41 to 42 |  | ≥ 80 | ≥ 80
8 | CC(C)CC(Cc1ccccc1)NC(=O)c1cnc2c(F)cccc2c1 (centres unmarked) [Compound E-29, N-(1-benzyl-3-methyl-butyl)-8-fluoro-quinoline-3-carboxamide] | ≥ 80 | ≥ 80 | ≥ 80 | ≥ 80 | ≥ 80 | 136 to 139 | ≥ 80 |  | 
9 | CC(C)(C)CC(C)(Cc1ccccc1)NC(=O)c1cnc2c(F)cccc2c1 (centres unmarked) [Compound E-34, N-(1-benzyl-1,3,3-trimethyl-butyl)-8-fluoro-quinoline-3-carboxamide] | ≥ 80 | ≥ 80 |  | ≥ 80 | ≥ 80 | 48 to 50 | ≥ 80 |  | ≥ 80
10 | C=C(C)CC(C)(Cc1ccccc1)NC(=O)c1cnc2ccccc2c1 (centres unmarked) [Compound E-36, N-(1-benzyl-1,3-dimethyl-but-3-enyl)quinoline-3-carboxamide] | ≥ 80 | ≥ 80 | ≥ 80 | ≥ 80 | ≥ 80 | 99 to 103 | ≥ 80 |  | ≥ 80
11 | C=CCC(C)(Cc1ccccc1)NC(=O)c1cnc2ccccc2c1 (centres unmarked) [Compound E-37, N-(1-benzyl-1-methyl-but-3-enyl)quinoline-3-carboxamide] | ≥ 80 | ≥ 80 |  | ≥ 80 | ≥ 80 |  |  | ≥ 80 | ≥ 80
12 | C=CCC(C)(Cc1ccccc1)NC(=O)c1cnc2c(F)cccc2c1 (centres unmarked) [Compound E-38, N-(1-benzyl-1-methyl-but-3-enyl)-8-fluoro-quinoline-3-carboxamide] | ≥ 80 | ≥ 80 | ≥ 80 | ≥ 80 | ≥ 80 |  |  | ≥ 80 | ≥ 80
13 | CC(C)CC(C)(Cc1ccccc1)NC(=O)c1cnc2cc(F)ccc2c1 (centres unmarked) [Compound E-40, N-(1-benzyl-1,3-dimethyl-butyl)-7-fluoro-quinoline-3-carboxamide] | ≥ 80 | ≥ 80 |  | ≥ 80 | ≥ 80 | 142 to 144 |  | ≥ 80 | 
14 | CCCC(C)(Cc1ccccc1)NC(=O)c1cnc2c(F)cccc2c1 (centres unmarked) [Compound E-42, N-(1-benzyl-1-methyl-butyl)-8-fluoro-quinoline-3-carboxamide] | ≥ 80 | ≥ 80 | ≥ 80 | ≥ 80 | ≥ 80 |  |  | ≥ 80 | ≥ 80
15 | CCCC(C)(Cc1ccccc1)NC(=O)c1cnc2ccccc2c1 (centres unmarked) [Compound E-43, N-(1-benzyl-1-methyl-butyl)quinoline-3-carboxamide] | ≥ 80 | ≥ 80 | ≥ 80 | ≥ 80 | ≥ 80 |  |  | ≥ 80 | ≥ 80
16 | CC(C)CC(C)(Cc1cccc(Br)c1)NC(=O)c1cnc2c(F)cccc2c1 (centres unmarked) [Compound E-45, N-[1-[(3-bromophenyl)methyl]-1,3-dimethyl-butyl]-8-fluoro-quinoline-3-carboxamide] | ≥ 80 | ≥ 80 |  | ≥ 80 | ≥ 80 | 87 to 89 |  | ≥ 80 | ≥ 80
17 | CC(C)CC(C)(Cc1cccc(C#N)c1)NC(=O)c1cnc2c(F)cccc2c1 (centres unmarked) [Compound E-46, N-[1-[(3-cyanophenyl)methyl]-1,3-dimethyl-butyl]-8-fluoro-quinoline-3-carboxamide] | ≥ 80 | ≥ 80 |  | ≥ 80 | ≥ 80 | 45 to 46 |  | ≥ 80 | 
18 | CC(C)CC(C)(Cc1ccccc1)NC(=O)c1cnc2c(F)c(F)ccc2c1 (centres unmarked) [Compound E-48, N-(1-benzyl-1,3-dimethyl-butyl)-7,8-difluoro-quinoline-3-carboxamide] | ≥ 80 | ≥ 80 | ≥ 80 | ≥ 80 | ≥ 80 | 114 to 116 |  | ≥ 80 | ≥ 80
19 | C=C(C)CC(Cc1ccccc1)(NC(=O)c1cnc2c(F)cccc2c1)C1CC1 (centres unmarked) [Compound E-53, N-(1-benzyl-1-cyclopropyl-3-methyl-but-3-enyl)-8-fluoro-quinoline-3-carboxamide] | ≥ 80 | ≥ 80 |  | ≥ 80 | ≥ 80 |  |  | ≥ 80 | ≥ 80
20 | CC(C)CC(C)(Cc1ccccc1)NC(=S)c1cnc2c(F)cccc2c1 (centres unmarked) [Compound E-114, N-(1-benzyl-1,3-dimethyl-butyl)-8-fluoro-quinoline-3-carbothioamide] | ≥ 80 | ≥ 80 | ≥ 80 | ≥ 80 | ≥ 80 | 150 to 153 | ≥ 80 |  | ≥ 80
21 | CC(C)(C)C[C@@](C)(Cc1ccccc1)NC(=O)c1cnc2c(F)cccc2c1 [Compound F-18, N-[(1S)-1-benzyl-1,3,3-trimethyl-butyl]-8-fluoro-quinoline-3-carboxamide] | ≥ 80 | ≥ 80 | ≥ 80 | ≥ 80 |  |  |  | ≥ 80 | ≥ 80
